Measured values reported in ChEMBL document CHEMBL1201862, “PubChem BioAssay data set” (2004).
Activity calls are given as the source filed them.

Legend:
[1] = molecular target: T1, Polyadenylate-binding protein 1 (Homo sapiens, UniProt P11940); assay: PABP1 MLLE–PAM2 interaction inhibitors, dose response, miRNA deadenylation inhibitor project, biochemical, fluorescence polarization, Cy5-PAM2 peptide, secondary (AID 602260); type: functional; details: read-out: IC50_Mean
[2] = molecular target: T1, Polyadenylate-binding protein 1; assay: PABP1 MLLE–PAM2 binding inhibitor potency, dose response, biochemical, fluorescence polarization, FITC-PAM2 peptide (AID 602259); type: functional; details: read-out: IC50_Mean
Major prion protein = Major prion protein (Homo sapiens, UniProt P04156); type: functional, cell-based
HEK293 [3] = assay: NOD1 signaling inhibitors, primary screen, cell-based, luminescence, uHTS (AID 1578); type: functional; details: Homo sapiens
[4] = molecular target: Luciferin 4-monooxygenase (Photinus pyralis, UniProt P08659); assay: Counter Screen for Luciferase-based Assay Positives. [Related pubchem assays: 620, 618, 411 ]
HEK293 [5] = assay: cells; type: functional, cell-based; details: Homo sapiens
HEK293 [6] = assay: cells; type: functional, cell-based; details: Homo sapiens; remark: listed apart in the source
[7] = molecular target: Nucleotide-binding oligomerization domain-containing protein 2 (Homo sapiens, UniProt Q9HC29); assay: NOD2 signaling inhibitors, cell-based, luminescence, uHTS, HEK293 (AID 1566); type: functional
HEK293 [8] = assay: NOD2 signaling inhibitors in MDP-stimulated cells, cell-based, uHTS, luminescence (AID 2001); type: functional; details: Homo sapiens
HEK293 [9] = assay: cells; type: functional, cell-based; details: Homo sapiens; remark: listed apart in the source
HT-1080 = assay: cytotoxicity in HT1080 fibrosarcoma cells, cell-based, fluorescence readout (AID 620); type: functional; details: Homo sapiens
[10] = Luminescence Cell-Based Dose Retest to Confirm Inhibitors of Cancer Stem Cells. [Related pubchem assays (depositor defined):AID2717, AID2721]; type: functional; details: Homo sapiens
[11] = molecular target: COUP transcription factor 2 (Homo sapiens, UniProt P24468); assay: Luminescence-based cell-based high throughput dose response assay to identify inhibitors of COUP-TFII (NR2F2).; type: functional;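 note: HEK293 cells transiently cotransfected with COUP-TFII expression vector and reporter; luciferase reporter luminescence driven by COUP-TFII from the pX2-168 reporter plasmid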
Paired box protein Pax-8 = Paired box protein Pax-8 (Homo sapiens, UniProt Q06710); assay: inhibitors of PAX8-driven TPO luciferase reporter, dose response, RMG-I cells, cherry-pick (AID 687027); type: functional, cell-based;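 note: luciferase reporter driven by Pax8 target thyroperoxidase promoter measured by SteadyGlo luminescence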
[12] = NIH:OVCAR-3 ovarian cancer cell cytotoxicity, dose response, PAX8 inhibitor project, plate reader, dry powder samples (AID 743044); type: functional, cell-based
[13] = IGROV1 ovarian cancer cell cytotoxicity, dose response, PAX8 inhibitor project, plate reader, dry powder samples (AID 743043); type: functional, cell-based; details: IGROV-1
[14] = non-specific cell cytotoxicity, dose response, cytotoxicity control for PAX8 inhibitor project, plate reader, dry powder samples (AID 743021); type: functional, cell-based
[15] = P. falciparum Dd2 growth inhibitors, dose response, SYBR Green, cherry-picked samples (AID 1159567); type: functional, cell-based
[16] = HepG2 cell cytotoxicity, dose response, cytotoxicity control, cherry-picked samples (AID 1159577); type: functional, cell-based
[17] = molecular target: Nuclear receptor subfamily 5 group A member 2 (Homo sapiens, UniProt O00482); type: functional, cell-based;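 note: HEK293T cells transfected with LRH-1 and a StAR promoter luciferase reporter; potency for inhibitors that lower LRH-1 driven reporter light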
Steroidogenic factor 1 = Steroidogenic factor 1 (Homo sapiens, UniProt Q13285); assay: Counterscreen for inverse agonists of the liver receptor homolog-1 (LRH-1; NR5A2): Luminescence-based cell-based high throughput dose response assay to identify inverse agonists of the Steroidogenic Factor 1 Nuclear Receptor (SF1; NR5A1).; type: functional
[18] = StAR promoter reporter inhibition counter-screen, dose response, counter-screen for LRH-1 inverse agonist project, cell-based, luminescence, luciferase reporter (AID 651969); type: functional
[19] = cytotoxicity in OVCAR8 ovarian cancer cells, dose response, PAX8 project, cell-based, plate reader, dry powder samples (AID 743197); type: functional; details: OVCAR-8
[20] = inhibitors of PGC1a acetylation in cells, dose response, cell-based, cherry-picked samples (AID 720514); type: functional;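 note: potency may reflect raised or lowered acetylation signal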
[21] = molecular target: NAD-dependent protein deacylase sirtuin-5, mitochondrial (Homo sapiens, UniProt Q9NXA8); assay: SIRT5 desuccinylase inhibitors, dose response, biochemical, fluorescence imaging, cherry-pick, set 5 (AID 720591);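 note: desuccinylation of succinyl peptide AMC substrate read as fluorescence after trypsin release; potency of inhibitors that lower fluorescence and may act on trypsin instead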

For `O=C(CSc1nc(Cc2ccccc2)nc2ccccc12)Nc1ccc2c(c1)OCCO2`, which IC50 [1] is on record?
Its IC50 is > 66 µM (inactive).

What about the IC50 [2] of the same molecule?
Its IC50 is > 66 µM (inactive).

And the IC50 (Major prion protein)?
Its IC50 is 5.39 µM (active).

What about the IC50 (cells) of the same molecule?
The IC50 was 45.6 µM (inactive).

What does the source list for `CC(=O)Nc1ccc(SCC(=O)c2cc(C)n(Cc3cccs3)c2C)cc1`?
EC50 (HEK293 [3]): > 20 µM (inactive); EC50 [4]: 3.59 µM (active); IC50 (HEK293 [5]): > 20 µM (inactive); IC50 (HEK293 [6]): > 20 µM (inactive); EC50 [7]: > 20 µM (inactive); IC50 (HEK293 [8]): > 20 µM (inactive); IC50 (HEK293 [9]): > 20 µM (inactive); EC50 (HT-1080): > 50 µM (not active); AC50 [10]: 1.77 µM (active); IC50 [11]: 23.6 µM (inactive)

With `COc1ccccc1NC(=O)N1CCCCN2[C@H](CO)[C@H](c3ccc(-c4cccc(C)c4)cc3)[C@H]2C1` as the molecule, how does the AC50 (Paired box protein Pax-8) read?
The AC50 was 14.6 µM (active).

What about the AC50 [12] of the same molecule?
Its AC50 is 22.8 µM (active).

What about the AC50 [13] of the same molecule?
The AC50 was 64.1 µM (active).

And the AC50 [14]?
Its AC50 is 2.56 µM (active).

And the AC50 [15]?
Its AC50 is 1.44 µM (active).

And the AC50 [16]?
The AC50 was 9.66 µM (active).

For `COc1cc2c(cc1OC)CN(C(=O)CN1C(=O)NC3(CCC(C)CC3)C1=O)CC2` (stereo not drawn), which IC50 [17] is on record?
Its IC50 is 13.4 µM (inactive).

And the IC50 (Steroidogenic factor 1)?
The IC50 was 11.3 µM (inactive).

And the IC50 [18]?
Its IC50 is 35.9 µM (inactive).

Which results are given for `Brc1ccc2nc(-c3ccco3)c(Cc3ccccc3)n2c1`?
IC50 (Major prion protein): 6.67 µM (active); IC50 (cells): 113 µM (inactive)

What does the source list for `O=C(C1CCCC1)N1CC[C@@H]2[C@H](CO)Nc3ccc(C4=CCCCC4)cc3[C@@H]21`?
AC50 (Paired box protein Pax-8): 12.7 µM (active); AC50 [12]: 25.5 µM (active); AC50 [19]: 33.1 µM (active); AC50 [15]: 5.7 µM (active); AC50 [16]: > 39 µM (inactive)

Which AC50 [20] does the source give for `CC(=O)c1ccc(Nc2cc(C)nc3ccc(C)cc23)cc1` here?
The AC50 was 6.09 µM (active).

For `CCCCC[C@@H](C)N1C[C@H](COCc2ccccc2)Oc2cc(N3CCC[C@@H]3CO)ccc2S1(=O)=O`, which AC50 [21] is on record?
Its AC50 is > 30 µM (inactive).

For `COc1ccc(C(=O)C2CCN(c3ncnc4sccc34)CC2)cc1`, which IC50 [11] is on record?
Its IC50 is 1.77 µM (active).
